Measurements reported in PubChem BioAssay AID1963428 (Molecular Pharmacology Branch, DTP, NCI, 2024).

System: 171881-019-R-J1-PDC complex spheroid growth, % test/control
Test: Anticancer human tumor 171881-019-R-J1-PDC patient-derived invasive breast carcinoma cell line growth inhibition [Asc]
Settings: for IC50: curve of first compound; for viability, T/C: stronger effect = lower value
Procedure: Multicellular complex tumor spheroid response to apoptosis pathway targeting inhibitors Alrizomadlin, Pelcitoclax, and Dasminapant in combination with a variety of drugs and investigational agents in selected tumor cell lines
The MDM2 inhibitor alrizomadlin, the Bcl-2/Bcl-xL inhibitor pelcitoclax, and the IAPs inhibitor dasminapant were evaluated both individually and in combination with standard of care and investigational anticancer small molecules within a complex spheroid model of solid tumors. . Complex spheroids include a stromal component modeled by human endothelial cells (HUVEC) and fibroblasts modeled by human mesenchymal stem cells (MSCs). The concentration ranges selected for each drug and investigational agent were based upon clinically achievable concentrations if the clinical Cmax of the agent was known.
Compounds. The drugs and investigational agents: alrizomadlin (APG-115; NSC831270), pelcitoclax (APG-1252; NSC835773), dasminapant (APG-1387;NSC834197), TAK-243 (NSC785004), copanlisib (NSC809693), olaparib (NSC753686), talazoparib (NSC767125), cobimetinib (NSC 768068), eltanexor (KPT-8602, NSC 794443), abemaciclib (NSC 768073), sotorasib (NSC818433), adagrasib (NSC 831453), MRTX-1133 (NSC 836407), Iadademestat (ORY1001, NSC 806812), and RMC-4630 (NSC839698), were obtained from the NCI Developmental Therapeutics Program Chemical Repository. The FDA-approved anticancer drug set is available from the Developmental Therapeutics Program at https://dtp.cancer.gov/organization/dscb/obtaining/available plates.htm. […] The stock solutions were prepared in dimethyl sulfoxide (DMSO, Sigma-Aldrich, St. Louis, MO, cat. D2650) at 800-fold the tested concentration and stored at -70 degrees C prior to their use. All drugs and investigational agents were tested over a range starting from a high concentration at or near the clinical Cmax and decreasing in half-log increments. If the clinical Cmax for an agent had not been determined, the highest concentration tested was 10 microM.
The patient-derived cancer (PDC) cell lines include five colon adenocarcinomas: 186277-243-T-J2-PDC, 616215-338-R-J1-PDC, 439559-082-T-J2-PDC, 463943-066-T-J2-PDC, and 519858-162-T-J1-PDC; three pancreatic carcinomas: 323965-272-R-J2-PDC, 521955-158-R6-J3-PDC, and 521955-158-R2-J5-PDC; two uterine sarcomas: 327498-152-R-J2-PDC and 993429-296-R-J1-PDC; two rhabdomyosarcomas: 755483-174-R-J1-PDC and 772245-204-R-J1-PDC; two soft tissue sarcomas: 126254-015-R-J1-PDC and 494315-158-R-J1-PDC; two malignant fibrous histiocytomas: 317291-083-R-J1-PDC and 596521-263-R-J1-PDC; two breast carcinomas: 171881-019-R-J1-PDC and 885512-296-R-J2-PDC; and one ovarian carcinoma: 6556581-035-R-J-PDC were obtained from the NCI PDMR, (https://pdmr.cancer.gov). The established cell lines HSSY-2 synovial sarcoma (RRID:CVCL 8719), SYO-1 synovial sarcoma (RRID:CVCL_7146), MPNST malignant peripheral neural sheath tumor were obtained from the Sloan Kettering Institute. The following established cell lines were purchased from the American Type Culture Collection (ATCC, Manassas, VA), Sor the received from the NCI repository:, PANC-1 pancreatic carcinoma (CRL-1469, RRID:CVCL_0480), OVCAR-5 ovarian carcinoma (RRID:CVCL_1628), OVCAR-8 ovarian carcinoma (RRID:CVCL_1629), , MCF-7 breast carcinoma (CRL-12584, RRID:CVCL_0031), MDA-MB-231 breast carcinoma (CRL-12532, RRID:CVCL_0062), NCI-H1876 small cell lung carcinoma (CRL-5902, RRID:CVCL_1503), NCI-H510A small cell lung carcinoma (HTB-184, RRID:CVCL_1565), NCI-H1417 (CRL-5869, RRID:CVCL_1469), and NCI-H196 small cell lung carcinoma (CRL-5823, RRID:CVCL_1509). Dr. Peter Houghton (Greehey Children's Cancer Research Institute, University of Texas Health Science Center, San Antonio, TX) provided Rh-18 rhabdomyosarcoma (RRID:CVCL_1659). Pooled donor human umbilical vein endothelial cells (HUVEC, Lonza, cat. CC-2519) and human mesenchymal stem cells (hMSC, Lonza, cat. PT-2501) were purchased from Lonza (Walkersville, MD).
Cell Culture. […]
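Wherever viability, T/C is given: spheroids exposed to compounds for 7 days.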

**Q.** Which results are given for `C=CC(=O)N1CCN(c2nc(=O)n(-c3c(C)ccnc3C(C)C)c3nc(-c4c(O)cccc4F)c(F)cc23)C(C)C1` (stereo not given) + Cc1c(S(C)(=O)=O)c(-c2cc(F)cc(N3CCN(c4ccc(NS(=O)(=O)c5ccc(NC(CCN6CCC(C(=O)OCCCP(=O)(O)O)CC6)CSc6ccccc6)c(S(=O)(=O)C(F)(F)F)c5)cc4)CC3)c2)c(-c2ccc(Cl)cc2)n1C(C)C?
**A.** IC50 (second compound 0.1 µM): > 10 µM; IC50 (second compound 0.316 µM): > 10 µM; IC50 (second compound 1 µM): > 10 µM; IC50 (second compound 3.16 µM): > 10 µM; IC50 (second compound 10 µM): > 10 µM; viability, T/C (second compound 0.1 µM, first compound 0.0316 µM): 92.3%; viability, T/C (second compound 0.1 µM, first compound 0.1 µM): 111%; viability, T/C (second compound 0.1 µM, first compound 0.316 µM): 100%; viability, T/C (second compound 0.1 µM, first compound 1 µM): 86%; viability, T/C (second compound 0.1 µM, first compound 3.16 µM): 84.9%; viability, T/C (second compound 0.1 µM, first compound 10 µM): 79.6%; viability, T/C (second compound 0.316 µM, first compound 0.0316 µM): 128%; viability, T/C (second compound 0.316 µM, first compound 0.1 µM): 114%; viability, T/C (second compound 0.316 µM, first compound 0.316 µM): 118%; viability, T/C (second compound 0.316 µM, first compound 1 µM): 86.9%; viability, T/C (second compound 0.316 µM, first compound 3.16 µM): 78.9%; viability, T/C (second compound 0.316 µM, first compound 10 µM): 87.7%; viability, T/C (second compound 1 µM, first compound 0.0316 µM): 119%; viability, T/C (second compound 1 µM, first compound 0.1 µM): 123%; viability, T/C (second compound 1 µM, first compound 0.316 µM): 125%; viability, T/C (second compound 1 µM, first compound 1 µM): 104%; viability, T/C (second compound 1 µM, first compound 3.16 µM): 78.7%; viability, T/C (second compound 1 µM, first compound 10 µM): 90.9%; viability, T/C (second compound 3.16 µM, first compound 0.0316 µM): 153%; viability, T/C (second compound 3.16 µM, first compound 0.1 µM): 122%; viability, T/C (second compound 3.16 µM, first compound 0.316 µM): 138%; viability, T/C (second compound 3.16 µM, first compound 1 µM): 133%; viability, T/C (second compound 3.16 µM, first compound 3.16 µM): 99.2%; viability, T/C (second compound 3.16 µM, first compound 10 µM): 99%; viability, T/C (second compound 10 µM, first compound 0.0316 µM): 165%; viability, T/C (second compound 10 µM, first compound 0.1 µM): 186%; viability, T/C (second compound 10 µM, first compound 0.316 µM): 165%; viability, T/C (second compound 10 µM, first compound 1 µM): 187%; viability, T/C (second compound 10 µM, first compound 3.16 µM): 133%; viability, T/C (second compound 10 µM, first compound 10 µM): 105%

**Q.** `CNC(C)C(=O)NC1CN(S(=O)(=O)c2cccc(S(=O)(=O)N3CCC4CCC(C(=O)NC(c5ccccc5)c5ccccc5)N4C(=O)C(NC(=O)C(C)NC)C3)c2)CCC2CCC(C(=O)NC(c3ccccc3)c3ccccc3)N2C1=O` (stereo not given) + CCN1C(C(=O)NC23CCC(C(=O)O)(CC2)CC3)C(c2cccc(Cl)c2F)C2(C(=O)Nc3cc(Cl)ccc32)C12CCCCC2 was tested. Which IC50 (second compound 0.03 µM) did it give?
**A.** The IC50 was greater than 1 µM.

**Q.** And the IC50 (second compound 0.0949 µM)?
**A.** The IC50 was greater than 1 µM.

**Q.** What about the IC50 (second compound 0.3 µM) of the same compound?
**A.** The IC50 was greater than 1 µM.

**Q.** And the IC50 (second compound 0.949 µM)?
**A.** The IC50 was greater than 1 µM.

**Q.** And the IC50 (second compound 3 µM)?
**A.** Its IC50 is greater than 1 µM.

**Q.** What about the viability, T/C (second compound 0.03 µM, first compound 0.00316 µM) of the same compound?
**A.** Its viability, T/C is 91.6%.

**Q.** And the viability, T/C (second compound 0.03 µM, first compound 0.01 µM)?
**A.** The viability, T/C was 103%.

**Q.** And the viability, T/C (second compound 0.03 µM, first compound 0.0316 µM)?
**A.** Its viability, T/C is 99.1%.

**Q.** And the viability, T/C (second compound 0.03 µM, first compound 0.1 µM)?
**A.** The viability, T/C was 93.3%.

**Q.** And the viability, T/C (second compound 0.03 µM, first compound 0.316 µM)?
**A.** Its viability, T/C is 93.7%.

**Q.** And the viability, T/C (second compound 0.03 µM, first compound 1 µM)?
**A.** Its viability, T/C is 93%.

**Q.** And the viability, T/C (second compound 0.0949 µM, first compound 0.00316 µM)?
**A.** The viability, T/C was 118%.

**Q.** And the viability, T/C (second compound 0.0949 µM, first compound 0.01 µM)?
**A.** The viability, T/C was 96.8%.

**Q.** And the viability, T/C (second compound 0.0949 µM, first compound 0.0316 µM)?
**A.** Its viability, T/C is 94.5%.

**Q.** What about the viability, T/C (second compound 0.0949 µM, first compound 0.1 µM) of the same compound?
**A.** Its viability, T/C is 91.7%.

**Q.** What about the viability, T/C (second compound 0.0949 µM, first compound 0.316 µM) of the same compound?
**A.** Its viability, T/C is 109%.

**Q.** And the viability, T/C (second compound 0.0949 µM, first compound 1 µM)?
**A.** Its viability, T/C is 90.2%.

**Q.** What about the viability, T/C (second compound 0.3 µM, first compound 0.00316 µM) of the same compound?
**A.** Its viability, T/C is 113%.

**Q.** And the viability, T/C (second compound 0.3 µM, first compound 0.01 µM)?
**A.** Its viability, T/C is 103%.

**Q.** What about the viability, T/C (second compound 0.3 µM, first compound 0.0316 µM) of the same compound?
**A.** The viability, T/C was 103%.

**Q.** And the viability, T/C (second compound 0.3 µM, first compound 0.1 µM)?
**A.** The viability, T/C was 109%.

**Q.** What about the viability, T/C (second compound 0.3 µM, first compound 0.316 µM) of the same compound?
**A.** The viability, T/C was 93.5%.

**Q.** And the viability, T/C (second compound 0.3 µM, first compound 1 µM)?
**A.** Its viability, T/C is 100%.

**Q.** And the viability, T/C (second compound 0.949 µM, first compound 0.00316 µM)?
**A.** Its viability, T/C is 109%.

**Q.** And the viability, T/C (second compound 0.949 µM, first compound 0.01 µM)?
**A.** The viability, T/C was 107%.

**Q.** What about the viability, T/C (second compound 0.949 µM, first compound 0.0316 µM) of the same compound?
**A.** The viability, T/C was 113%.

**Q.** And the viability, T/C (second compound 0.949 µM, first compound 0.1 µM)?
**A.** The viability, T/C was 88.5%.

**Q.** And the viability, T/C (second compound 0.949 µM, first compound 0.316 µM)?
**A.** Its viability, T/C is 109%.

**Q.** What about the viability, T/C (second compound 0.949 µM, first compound 1 µM) of the same compound?
**A.** Its viability, T/C is 102%.

**Q.** What about the viability, T/C (second compound 3 µM, first compound 0.00316 µM) of the same compound?
**A.** Its viability, T/C is 102%.

**Q.** What about the viability, T/C (second compound 3 µM, first compound 0.01 µM) of the same compound?
**A.** Its viability, T/C is 115%.

**Q.** And the viability, T/C (second compound 3 µM, first compound 0.0316 µM)?
**A.** The viability, T/C was 106%.

**Q.** And the viability, T/C (second compound 3 µM, first compound 0.1 µM)?
**A.** Its viability, T/C is 90.3%.

**Q.** And the viability, T/C (second compound 3 µM, first compound 0.316 µM)?
**A.** Its viability, T/C is 100%.

**Q.** What about the viability, T/C (second compound 3 µM, first compound 1 µM) of the same compound?
**A.** Its viability, T/C is 96%.
